Square brackets hold non-standard residues; d marks the D form. Ends that are not written are not given here. Met(O) = CS(=O)CC[C@H](N)C(=O)O
Test system: mouse ADAMTS7
Assay: TMT10 TAILS N-terminomics, SMC2 experiment (process replicates, trypsin/AspN digest)
Assay type: cell-based
Outline: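 Full-length mouse ADAMTS7 (WT or E373Q mutant, C-terminal 3xFLAG) or luciferase was transduced via adenovirus, 50 MOI, into HCA-SMC (SMC1, SMC2) or HUVEC. SMC1: pooled media, technical triplicates 400 ug; SMC2: process triplicates 300 ug; HUVEC: process triplicates 200 ug, bFGF2 10 ng/ml.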

[1] = SMC2_TAILS HC, log fold change, mWT over mEQ
[2] = SMC2_TAILS HC, log fold change of N-terminal peptide, Ad-mADAMTS7 WT over EQ
[3] = log fold change, ADAMTS7 WT over EQ

Substance	logFC.mWT.over.mEQ [1]	logFC.mWT.over.mEQ [2]	logFC.mWT.over.mEQ [3]
COL1A2_80 (QYDGKGVGLGPGPMGLMGPR; listed as Homo sapiens)	1.15	–	–
COL1A2_270 (VGNAGPAGPAGPR; listed as Homo sapiens)	3.47	–	–
COL1A2_305 (LTGAKGAAGLPGVAGAPGLPGPR; listed as Homo sapiens)	1.92	–	–
COL1A2_630 (VGTAGPSGPSGLPGER; listed as Homo sapiens)	2.33	–	–
COL1A2_866 (LLGAPGILGLPGSR; listed as Homo sapiens)	3.22	–	–
COL1A2_960 (AGAPGPHGPVGPAGKHGNR; listed as Homo sapiens)	2.87	–	–
COL1A2_1028 (LQGLPGIAGHHGDQGAPGSVGPAGPR; listed as Homo sapiens)	1.98	–	–
COL4A2_71 (YNGPPGLQGFPGLQGR; listed as Homo sapiens)	1.70	–	–
COL18A1_1505 (LQPPVVQLHDSNPYPR; listed as Homo sapiens)	1.47	–	–
LOXL1_218 (AVASAGVIYPYQPR; listed as Homo sapiens)	–	1.83	–
LOXL2_45 (HQPQAPANVAKIQLR; listed as Homo sapiens)	–	2.51	–
LTBP2_79 (VAGLQPVER; listed as Homo sapiens)	–	1.62	–
LTBP2_250 (SAAGEGTLAR; listed as Homo sapiens)	–	2.70	–
LTBP2_290 (QHVGLSR; listed as Homo sapiens)	–	3.05	–
LTBP2_502 (LVENSVETRPPPWLPASPGHSLW; listed as Homo sapiens)	–	2.85	–
LTBP3_103 (LTGSGFR; listed as Homo sapiens)	–	5.72	–
LTBP3_208 (FLVPLGPGQISA; listed as Homo sapiens)	–	1.53	–
MAP4_815 (AVASTGPSSR; listed as Homo sapiens)	–	1.70	–
MAP4_816 (VASTGPSSR; listed as Homo sapiens)	–	2.51	–
MMP1_100 (FVLTEGNPR; listed as Homo sapiens)	–	2.39	–
MMP1_185 (FQPGPGIGG; listed as Homo sapiens)	–	1.46	–
NBEA_1892 (LEKVAPLLR; listed as Homo sapiens)	–	2.12	–

Substance	logFC.mWT.over.mEQ [1]	logFC.mWT.over.mEQ [2]	logFC.mWT.over.mEQ [3]
NID1_360 (FHQQHPQVI; listed as Homo sapiens)	–	2.69	–
NID2_291 (HSSVPLGR; listed as Homo sapiens)	–	3.16	–
NID2_951 (YAYPGAR; listed as Homo sapiens)	–	2.80	–
PAK4_141 (HSEAGGGSG; listed as Homo sapiens)	–	1.78	–
PLIN3_75 (VSGAQPILSKL; listed as Homo sapiens)	–	2.25	–
POSTN_727 (IITGPEIKYTR; listed as Homo sapiens)	–	2.60	–
PPP1R18_295 (LSETLTR; listed as Homo sapiens)	–	2.32	–
PTPRF_1859 (MRYEGVVDMFQTVKTLR; listed as Homo sapiens)	–	2.59	–
QSOX1_210 (HKGVAVR; listed as Homo sapiens)	–	1.69	–
SERBP1_56 (QAAAQTNSNAAGKQLR; listed as Homo sapiens)	–	–	4.06
SHC2_267 (VAKDPINQRACHIL; listed as Homo sapiens)	–	1.85	–
SPOCK1_27 (LAGGAGPNHGNFL; listed as Homo sapiens)	–	2.69	–
SRGN_59 (LLPGESNKIPR; listed as Homo sapiens)	–	3.66	4.33
THBS2_290 (LSENLKR; listed as Homo sapiens)	–	–	4.05
TNPO2_744 (VQ[Met(O)]VLNNLVEII[code n]RP[code n]TPKTLLE; listed as Homo sapiens)	–	4.02	–
TNS1_236 (QEGLAGYQR; listed as Homo sapiens)	–	2.08	–
TRGC2_86 (HRCIVRHENNK; listed as Homo sapiens)	–	2.93	–
TTN_5975 (VKEPPVEFTKPL; listed as Homo sapiens)	–	3.34	–
VAT1_42 (AASPPLLR; listed as Homo sapiens)	–	2.95	–
VIM_314 (QESTEYR; listed as Homo sapiens)	–	3.28	2.60
VIM_333 (LKGTNESLER; listed as Homo sapiens)	–	3.84	4.39

From patent US20240368668A1, “SUBSTRATES AND BIOMARKERS OF ADAMTS7” (The Broad Institute, Inc., priority 2021, published 2024)
